Where two headings read alike, the source gives them in different places.
Biological target: T1, acetylcholinesterase (AChE) from electric eels (type V-S) (Electrophorus electricus, UniProt O42275)
T1 construct: purchased Sigma-Aldrich (St. Louis, MO, USA) type V-S (catalogue number not given)
Assay: Acetylcholinesterase (AChE) inhibitory assay, modified Ellman's colorimetric method, 96-well microplate
Format: biochemical
Settings: for AChE inhibitory activity in words: microplate assay

[1] = mean ± standard deviation of two independent experiments, Tris-HCl pH 8, absorbance at 405 nm, read-out: Acetylcholinesterase inhibitory activity IC50

T1 sequence (O42275 24-633): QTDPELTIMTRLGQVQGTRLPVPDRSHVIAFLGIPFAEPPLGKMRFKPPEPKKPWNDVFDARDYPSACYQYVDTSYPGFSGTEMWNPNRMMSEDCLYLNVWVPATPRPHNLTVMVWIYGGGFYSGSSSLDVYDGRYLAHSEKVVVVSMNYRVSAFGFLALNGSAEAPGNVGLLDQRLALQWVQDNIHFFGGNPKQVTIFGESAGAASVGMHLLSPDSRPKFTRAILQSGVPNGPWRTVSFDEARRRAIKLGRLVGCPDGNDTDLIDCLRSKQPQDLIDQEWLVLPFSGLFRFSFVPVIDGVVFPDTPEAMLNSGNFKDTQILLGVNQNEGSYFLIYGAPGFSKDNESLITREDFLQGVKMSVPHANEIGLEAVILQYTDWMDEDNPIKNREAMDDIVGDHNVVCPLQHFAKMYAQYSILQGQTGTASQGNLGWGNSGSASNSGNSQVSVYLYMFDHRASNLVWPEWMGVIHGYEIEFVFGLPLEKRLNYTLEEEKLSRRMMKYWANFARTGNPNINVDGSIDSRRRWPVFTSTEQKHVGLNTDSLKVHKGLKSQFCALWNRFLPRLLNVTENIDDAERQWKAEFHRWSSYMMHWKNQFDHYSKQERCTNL

Structure (SMILES) | IC50 | AChE inhibitory activity in words | IC50 [1]
COc1cc2c(cc1O)-c1cc3ccc(OC)c(OC)c3c[n+]1CC2 [Compound 3, columbamine] | 48.1 ± 1.3 µM | most active compound | 
COc1ccc2c(c1O)-c1c(O)c(OC)cc3c1[C@H](C2)[N+](C)(C)CC3 [Compound 4, magnoflorine] |  | very weak or no inhibitory activity | 
O=CN1CCc2cc3c(c4c2C1Cc1ccccc1-4)OCO3 (stereo not shown) [Compound 5, N-formylannonaine] |  |  | 415.3 ± 2.7 µM
COc1cc2c3c(c1OC)-c1ccccc1CC3N(C=O)CC2 (stereo not shown) [Compound 6, N-formylnornuciferine] |  | very weak or no inhibitory activity | 564.6 ± 2.1 µM
COc1cc(/C=C/C(=O)NCCc2ccc(O)cc2)ccc1O [Compound 7, N-trans-feruloyltyramine] |  | very weak or no inhibitory activity | 

Source: article PMC6270727, “Anticholinesterase Inhibitory Activity of Quaternary Alkaloids from Tinospora crispa” (Molecules, 2014)
